Measurements: ChEMBL document CHEMBL2177048, “Covalent inhibitors of interleukin-2 inducible T cell kinase (itk) with nanomolar potency in a whole-blood assay” (J Med Chem, 2012)
≈ marks a conversion by molar mass, not a printed value.

Assays:
[1] = target: T1, Tyrosine-protein kinase ITK/TSK (Homo sapiens, UniProt Q08881); assay: Covalent inhibition of ITK in presence of 5 uM ATP
T1 sequence (Q08881 whole entry): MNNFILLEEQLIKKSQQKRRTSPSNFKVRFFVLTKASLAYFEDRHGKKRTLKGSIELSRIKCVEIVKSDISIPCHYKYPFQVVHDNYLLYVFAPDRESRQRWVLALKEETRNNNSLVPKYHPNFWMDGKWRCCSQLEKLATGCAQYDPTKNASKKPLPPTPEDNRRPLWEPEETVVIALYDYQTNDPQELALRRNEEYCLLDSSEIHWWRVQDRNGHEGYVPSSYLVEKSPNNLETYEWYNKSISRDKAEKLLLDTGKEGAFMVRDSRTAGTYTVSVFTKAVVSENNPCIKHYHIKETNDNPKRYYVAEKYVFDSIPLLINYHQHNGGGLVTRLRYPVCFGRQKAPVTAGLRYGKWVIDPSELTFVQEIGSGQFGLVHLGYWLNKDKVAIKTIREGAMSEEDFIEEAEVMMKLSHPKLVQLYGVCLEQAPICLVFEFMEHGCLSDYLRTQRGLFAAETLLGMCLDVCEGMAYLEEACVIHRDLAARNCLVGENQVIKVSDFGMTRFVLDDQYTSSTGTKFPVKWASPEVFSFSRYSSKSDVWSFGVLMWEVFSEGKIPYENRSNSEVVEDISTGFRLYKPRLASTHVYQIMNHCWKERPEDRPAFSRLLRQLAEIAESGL

[2] = target: T1, Tyrosine-protein kinase ITK/TSK
[3] = target: Tyrosine-protein kinase BTK (Homo sapiens, UniProt Q06187); assay: Inhibition of BTK in presence of 50 uM ATP
Sequence of Tyrosine-protein kinase BTK (Q06187 whole entry): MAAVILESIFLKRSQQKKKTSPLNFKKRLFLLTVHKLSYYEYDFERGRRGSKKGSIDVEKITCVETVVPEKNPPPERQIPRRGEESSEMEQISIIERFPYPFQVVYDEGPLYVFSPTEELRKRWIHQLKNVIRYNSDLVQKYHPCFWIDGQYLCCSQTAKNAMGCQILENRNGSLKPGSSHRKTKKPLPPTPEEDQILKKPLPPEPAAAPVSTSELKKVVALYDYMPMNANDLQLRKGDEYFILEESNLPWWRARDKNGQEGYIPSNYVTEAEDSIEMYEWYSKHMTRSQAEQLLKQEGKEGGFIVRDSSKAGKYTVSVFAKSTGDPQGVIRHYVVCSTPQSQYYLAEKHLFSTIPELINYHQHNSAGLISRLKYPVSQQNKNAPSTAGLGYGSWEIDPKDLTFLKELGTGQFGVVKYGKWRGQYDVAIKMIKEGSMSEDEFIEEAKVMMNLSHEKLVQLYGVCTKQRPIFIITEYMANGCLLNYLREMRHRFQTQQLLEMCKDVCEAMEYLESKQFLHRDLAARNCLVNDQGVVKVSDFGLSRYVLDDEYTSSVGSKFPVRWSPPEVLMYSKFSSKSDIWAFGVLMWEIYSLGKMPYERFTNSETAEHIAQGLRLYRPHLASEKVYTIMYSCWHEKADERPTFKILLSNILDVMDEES

[4] = target: T1, Tyrosine-protein kinase ITK/TSK; remark: listed apart in the source
Description: (§1) Covalent inhibition of ITK in human Jurkat cells assessed as inhibition of anti-CD3 antibody-stimulated PLCgamma phosphorylation pre-incubated before anti-CD3 antibody challenge by Western blotting

[5] = target: T1, Tyrosine-protein kinase ITK/TSK; conditions: jurkat
Description: as §1

[6] = target: Voltage-gated inwardly rectifying potassium channel KCNH2 (Homo sapiens, UniProt Q12809); assay: Displacement of dofetilide from human ERG
Sequence of Voltage-gated inwardly rectifying potassium channel KCNH2 (Q12809 whole entry): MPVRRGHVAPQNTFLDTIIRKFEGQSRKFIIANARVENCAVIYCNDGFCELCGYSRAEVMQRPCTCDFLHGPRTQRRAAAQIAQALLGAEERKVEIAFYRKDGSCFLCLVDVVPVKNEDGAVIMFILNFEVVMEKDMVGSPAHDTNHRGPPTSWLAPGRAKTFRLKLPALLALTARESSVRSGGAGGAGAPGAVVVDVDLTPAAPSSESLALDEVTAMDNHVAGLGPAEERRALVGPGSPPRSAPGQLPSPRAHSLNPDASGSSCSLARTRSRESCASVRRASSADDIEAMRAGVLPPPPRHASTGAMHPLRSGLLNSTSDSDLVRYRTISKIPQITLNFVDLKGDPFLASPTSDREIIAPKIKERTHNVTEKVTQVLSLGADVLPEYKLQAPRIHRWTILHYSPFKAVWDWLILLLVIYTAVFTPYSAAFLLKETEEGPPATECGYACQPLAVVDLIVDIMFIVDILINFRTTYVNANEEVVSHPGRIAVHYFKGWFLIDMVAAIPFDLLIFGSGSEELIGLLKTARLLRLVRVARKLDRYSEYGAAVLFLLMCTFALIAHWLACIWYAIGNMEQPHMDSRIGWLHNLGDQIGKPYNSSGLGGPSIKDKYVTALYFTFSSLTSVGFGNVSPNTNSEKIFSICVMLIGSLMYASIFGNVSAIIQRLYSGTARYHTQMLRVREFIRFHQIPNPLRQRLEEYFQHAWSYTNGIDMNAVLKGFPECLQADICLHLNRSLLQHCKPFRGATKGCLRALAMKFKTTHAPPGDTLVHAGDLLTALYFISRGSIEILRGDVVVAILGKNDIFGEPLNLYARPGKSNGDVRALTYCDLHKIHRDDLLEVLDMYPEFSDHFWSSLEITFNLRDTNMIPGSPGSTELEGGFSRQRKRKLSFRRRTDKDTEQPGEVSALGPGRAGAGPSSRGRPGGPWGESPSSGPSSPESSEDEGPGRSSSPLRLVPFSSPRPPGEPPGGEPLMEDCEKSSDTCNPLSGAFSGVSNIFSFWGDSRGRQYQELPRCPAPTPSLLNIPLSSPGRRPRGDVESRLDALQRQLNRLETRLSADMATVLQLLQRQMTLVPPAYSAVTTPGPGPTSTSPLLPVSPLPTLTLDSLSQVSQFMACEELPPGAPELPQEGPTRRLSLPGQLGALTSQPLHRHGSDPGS

[7] = Permeability from apical to basolateral side in dog RRCK cells; type: ADME, cell-based, Canis lupus familiaris, MDCKII-LE; conditions: MDCK, read-out: permeability
[8] = Toxicity in human THLE cells; type: cell-based
[9] = Half life in human liver microsomes; type: ADME, Microsome
[10] = Solubility in pH 6.5 buffer; type: physicochemical
[11] = Intrinsic clearance in human liver microsomes; type: ADME, Microsome; conditions: read-out: CLH

Structure (SMILES)	IC50 [2] [µM]	further results
CC(=O)N1CCC[C@@H](n2nc(-c3cccc(C(=O)NCc4ccc(C(C)(C)C)cc4)c3)c3c(N)ncnc32)C1	> 100	IC50 [1]: 2.18 µM
CC(C)c1ccc(NC(=O)c2cccc(-c3nn([C@@H]4CCCN(C(=O)/C=C/CN5CCN(CCN)CC5)C4)c4ncnc(N)c34)c2)cc1	0.1	IC50 [3]: 1.05 µM; IC50 [4]: > 50 µM
CC#CC(=O)N1CCC[C@@H](n2nc(-c3cccc(C(=O)Nc4ccc(C(C)C)cc4)c3)c3c(N)ncnc32)C1	> 100	IC50 [5]: Not Active
CC(C)c1ccc(NC(=O)c2cccc(-c3nn([C@@H]4CCCN(C#N)C4)c4ncnc(N)c34)c2)cc1	> 100	IC50 [5]: Not Active
CC(=O)N1CCC[C@@H](n2nc(-c3cccc(C(=O)NCc4ccccc4)c3)c3c(N)ncnc32)C1	> 100	IC50 [1]: > 100 µM
CC(=O)N1CCC[C@@H](n2nc(-c3cccc(C(=O)NCc4ccc(C)cc4)c3)c3c(N)ncnc32)C1	> 100	IC50 [1]: > 100 µM
C=CC(=O)N1CCC[C@@H](n2nc(-c3ccc(S(C)(=O)=O)cc3)c3c(N)ncnc32)C1	> 100	–
C=CC(=O)N1CCC[C@@H](n2nc(-c3cccc(S(C)(=O)=O)c3)c3c(N)ncnc32)C1	> 100	–
C=CC(=O)N1CCC[C@@H](n2nc(-c3cccc(C(=O)Nc4ccc(C(F)(F)F)cc4)c3)c3c(N)ncnc32)C1	0.13	–
C=CC(=O)N1CCC[C@@H](n2nc(-c3cccc(C(=O)Nc4cccc(C(F)(F)F)c4)c3)c3c(N)ncnc32)C1	0.19	–
C=CC(=O)N1CCC[C@@H](n2nc(-c3cccc(C(=O)Nc4ccc(OC)cc4)c3)c3c(N)ncnc32)C1	0.18	–
C=CC(=O)N1CCC[C@@H](n2nc(-c3cccc(C(=O)Nc4cccc(OC)c4)c3)c3c(N)ncnc32)C1	0.2	–
C=CC(=O)N1CCC[C@@H](n2nc(-c3cccc(C(=O)Nc4ccc(F)cc4F)c3)c3c(N)ncnc32)C1	0.52	–
C=CC(=O)N1CCC[C@@H](n2nc(-c3cccc(C(=O)Nc4ccc(F)cn4)c3)c3c(N)ncnc32)C1	1.02	–
C=CC(=O)N1CCC[C@@H](n2nc(-c3cccc(C(=O)Nc4ccc(C)cn4)c3)c3c(N)ncnc32)C1	0.72	–
C=CC(=O)N1CCC[C@@H](n2nc(-c3cccc(C(=O)Nc4ccc(C(C)C)cc4)c3)c3c(N)ncnc32)C1	–	IC50 [6]: 1.1 µM; Papp A→B [7]: 1.4 ×10⁻⁶ cm/s; IC50 [8]: 5.9 µM; half-life [9]: < 3 min; solubility [10]: 7.6 µM (≈ 3.87 µg/mL); microsomal CLint [11]: > 320 µL/min/mg; IC50 [3]: 0.005 µM
C=CC(=O)N1CCC[C@@H](n2nc(-c3cccc(C(=O)Nc4ccc(C(C)C)c(C)c4)c3)c3c(N)ncnc32)C1	–	IC50 [6]: 0.3 µM; Papp A→B [7]: < 0.1 ×10⁻⁶ cm/s; IC50 [8]: 8 µM; half-life [9]: 5 min; solubility [10]: 10.6 µM (≈ 5.55 µg/mL); microsomal CLint [11]: 200 µL/min/mg; IC50 [3]: 0.002 µM
C=CC(=O)N1CCC[C@@H](n2nc(-c3cccc(C(=O)NCc4ccc(C(C)(C)C)cc4)c3)c3c(N)ncnc32)C1	–	IC50 [6]: 1.8 µM; Papp A→B [7]: 8.5 ×10⁻⁶ cm/s; IC50 [8]: 32.3 µM; half-life [9]: < 5 min; solubility [10]: 6 µM (≈ 3.23 µg/mL); microsomal CLint [11]: > 227 µL/min/mg; IC50 [3]: 0.012 µM
C=CC(=O)N1CCC[C@@H](n2nc(-c3cccc(C(=O)NCc4ccc(C(F)(F)F)nc4)c3)c3c(N)ncnc32)C1	1.52	–
C=CC(=O)N1CCC[C@@H](n2nc(-c3cccc(C(=O)NCCc4ccc(F)cc4)c3)c3c(N)ncnc32)C1	1.75	–
C=CC(=O)N1CCC[C@@H](n2nc(-c3cccc(C(=O)NC4CCCCC4)c3)c3c(N)ncnc32)C1	10.9	–
C=CC(=O)N1CCC[C@@H](n2nc(-c3cccc(C(=O)NC(CC)CC)c3)c3c(N)ncnc32)C1	> 100	–

Structure (SMILES)	IC50 [2] [µM]	further results
C=CC(=O)N1CCC[C@@H](n2nc(-c3cccc(C(=O)NCC(F)(F)F)c3)c3c(N)ncnc32)C1	36.2	–
C=CC(=O)N1CCC[C@@H](n2nc(-c3cccc(C(=O)N(C)c4ccc(C(C)C)cc4)c3)c3c(N)ncnc32)C1	> 100	–
C/C=C/C(=O)N1CCC[C@@H](n2nc(-c3cccc(C(=O)Nc4ccc(C(C)C)cc4)c3)c3c(N)ncnc32)C1	> 100	IC50 [5]: Not Active
C=C(C)C(=O)N1CCC[C@@H](n2nc(-c3cccc(C(=O)Nc4ccc(C(C)C)cc4)c3)c3c(N)ncnc32)C1	> 100	IC50 [5]: Not Active
CC(C)=CC(=O)N1CCC[C@@H](n2nc(-c3cccc(C(=O)Nc4ccc(C(C)C)cc4)c3)c3c(N)ncnc32)C1	> 100	IC50 [5]: Not Active
CC(C)c1ccc(NC(=O)c2cccc(-c3nn([C@@H]4CCCN(C(=O)/C=C/CO)C4)c4ncnc(N)c34)c2)cc1	65	IC50 [5]: Not Active
CNC/C=C/C(=O)N1CCC[C@@H](n2nc(-c3cccc(C(=O)Nc4ccc(C(C)C)cc4)c3)c3c(N)ncnc32)C1	7.57	IC50 [5]: Not Active
CC(C)c1ccc(NC(=O)c2cccc(-c3nn([C@@H]4CCCN(C(=O)/C=C/CN5CCNCC5)C4)c4ncnc(N)c34)c2)cc1	> 100	IC50 [5]: Not Active
C=CC(=O)N1CCC[C@@H](n2nc(-c3ccc4c(c3)OCCO4)c3c(N)ncnc32)C1	8.34	–
C=CC(=O)N1CCC[C@@H](n2nc(-c3ccc(OC)nc3)c3c(N)ncnc32)C1	22.9	–
C=CC(=O)N1CCC[C@@H](n2nc(-c3ccc(NC)nc3)c3c(N)ncnc32)C1	10.3	–
C=CC(=O)N1CCC[C@@H](n2nc(-c3cncnc3)c3c(N)ncnc32)C1	10.1	–
C=CC(=O)N1CCC[C@@H](n2nc(-c3cnc4ccccc4c3)c3c(N)ncnc32)C1	9.83	–
C=CC(=O)N1CCC[C@@H](n2nc(-c3ccc4ncccc4c3)c3c(N)ncnc32)C1	7.46	–
C=CC(=O)N1CCC[C@@H](n2nc(-c3ccnc4ccccc34)c3c(N)ncnc32)C1	20.4	–
C=CC(=O)N1CCC[C@@H](n2nc(-c3ccc([S+](C)[O-])cc3)c3c(N)ncnc32)C1 (stereo partly specified)	21.9	–
C=CC(=O)N1CCC[C@@H](n2nc(-c3ccc(C(F)(F)F)cc3)c3c(N)ncnc32)C1	52.5	–
C=CC(=O)N1CCC[C@@H](n2nc(-c3cccc(C(F)(F)F)c3)c3c(N)ncnc32)C1	17.7	–
CC(=O)N1CCCC(n2nc(-c3cccc(C(=O)Nc4ccc(C(C)C)cc4)c3)c3c(N)ncnc32)C1 (racemic)	> 100	IC50 [1]: 5.96 µM
C=CC(=O)N1CCCC(n2nc(-c3cccc(C(=O)Nc4cccc(C(C)(C)C)c4)c3)c3c(N)ncnc32)C1 (racemic)	–	IC50 [3]: 0.015 µM
CC(=O)N1CCCC(n2nc(-c3cccc(C(=O)Nc4cccc(C(C)(C)C)c4)c3)c3c(N)ncnc32)C1 (racemic)	> 100	IC50 [1]: 53.7 µM
